Assay results taken from publication PMC12649549, “Sequence Permutation Generated Lysine and Tryptophan-Rich Antimicrobial Peptides with Enhanced Therapeutic Index” (Antibiotics, 2025).
Read-outs that look alike come from different tables or passages of the source.

How the values were obtained:
Gram-positive bacteria = assay: Geometric mean MIC and therapeutic index, Gram-positive bacteria; assay type: cell-based; conditions: Gram-positive bacteria; for GM G+ (geometric mean of the MIC values): MH broth, MIC >50 µg/mL counted as 100 µg/mL; for Therapeutic Index (TI) G+: HC10/GM
Procedure, shortened: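 Read-out is the MIC by CLSI broth microdilution, summarised as a geometric mean across strains, with TI defined as HC10 on human red cells over that GM. Media were MH broth and LYM broth adjusted for salt, Mg2+ and pH; peptides ran 0.78–50 µg/mL.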

[1] = system: A. baumannii 14B0097 (Acinetobacter sp., BCRC number 14B0097)
Procedure, shortened: (§1)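 Broth microdilution per CLSI in Müller-Hinton broth and modified LYM broth (pH 7.4; variants with 300–50 mM NaCl, 2.5–0.5 mM MgCl2, or pH 6.5–4.5). Inoculum 5 × 10^5 CFU/mL; peptides at final 50 to 0.78 µg/mL, twofold series. MIC reported; three independent repeats.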

S. aureus ATCC 25923 = system: S. aureus ATCC 25923
Procedure, shortened: as §1

S. aureus ATCC 6538 = system: S. aureus ATCC 6538
Procedure, shortened: as §1

S. aureus ATCC 33592 = system: S. aureus ATCC 33592
Procedure, shortened: as §1

[2] = LYM broth, 0 mM NaCl, 16 h, 37 °C
[3] = LYM broth, 50 mM NaCl, 16 h, 37 °C
[4] = LYM broth, 100 mM NaCl, 16 h, 37 °C
[5] = LYM broth, 200 mM (NaCl), 16 h, 37 °C
[6] = LYM broth, 300 mM (NaCl), 16 h, 37 °C
[7] = MH broth, 5 × 10^5 CFU/mL, 16 h, 37 °C, repeated three times

Ac-RKWLKWLAKKKKW-NH2 [Peptide W5K03] was tested, and the “GM G+ (geometric mean of the MIC values)” value (Gram-positive bacteria) was 66.0 µg/mL, the “Therapeutic Index (TI) G+” value (Gram-positive bacteria) was 1.6 and the MIC [1, 2] was 1.56 µg/mL. It also gave an MIC ([1]; LYM broth, 0.5 mM MgCl2) of 3.13 µg/mL, an MIC ([1]; LYM broth, 1.5 mM MgCl2) of 3.13 µg/mL and an MIC ([1]; LYM broth, 2.5 mM MgCl2) of 3.13 µg/mL. It also gave an MIC [1, 3] of 3.13 µg/mL, an MIC [1, 4] of 3.13 µg/mL and an MIC [1, 5] of 6.25 µg/mL. The MIC [1, 6] was 25 µg/mL, the MIC ([1]; LYM broth, pH 4.5) was 3.13 µg/mL and the MIC ([1]; LYM broth, pH 5.5) was 3.13 µg/mL. It also gave an MIC ([1]; LYM broth, pH 6.5) of 3.13 µg/mL, an MIC [1, 7] of 6.25 µg/mL and an MIC (S. aureus ATCC 25923; [2]) of 6.25 µg/mL. It also gave an MIC (S. aureus ATCC 25923; LYM broth, 0.5 mM MgCl2) of 6.25 µg/mL, an MIC (S. aureus ATCC 25923; LYM broth, 1.5 mM MgCl2) of 12.5 µg/mL and an MIC (S. aureus ATCC 25923; LYM broth, 2.5 mM MgCl2) of 12.5 µg/mL. For the same substance, the MIC (S. aureus ATCC 25923; [3]) was 12.5 µg/mL, the MIC (S. aureus ATCC 25923; [4]) was 25 µg/mL and the MIC (S. aureus ATCC 25923; [5]) was over 50 µg/mL. It also gave an MIC (S. aureus ATCC 25923; [6]) of over 50 µg/mL, an MIC (S. aureus ATCC 25923; LYM broth, pH 4.5) of 6.25 µg/mL and an MIC (S. aureus ATCC 25923; LYM broth, pH 5.5) of 3.13 µg/mL. The MIC (S. aureus ATCC 25923; LYM broth, pH 6.5) was 3.13 µg/mL, the MIC (S. aureus ATCC 25923; [7]) was 50 µg/mL and the MIC (S. aureus ATCC 6538; [2]) was 1.56 µg/mL. The MIC (S. aureus ATCC 6538; LYM broth, 0.5 mM MgCl2) was 3.13 µg/mL, the MIC (S. aureus ATCC 6538; LYM broth, 1.5 mM MgCl2) was 3.13 µg/mL and the MIC (S. aureus ATCC 6538; LYM broth, 2.5 mM MgCl2) was 6.25 µg/mL. For the same substance, the MIC (S. aureus ATCC 6538; [3]) was 3.13 µg/mL, the MIC (S. aureus ATCC 6538; [4]) was 6.25 µg/mL and the MIC (S. aureus ATCC 6538; [5]) was 12.5 µg/mL. For the same substance, the MIC (S. aureus ATCC 6538; [6]) was 25 µg/mL, the MIC (S. aureus ATCC 6538; LYM broth, pH 4.5) was 6.25 µg/mL and the MIC (S. aureus ATCC 6538; LYM broth, pH 5.5) was 3.13 µg/mL. For the same substance, the MIC (S. aureus ATCC 6538; LYM broth, pH 6.5) was 3.13 µg/mL, the MIC (S. aureus ATCC 6538; [7]) was 25 µg/mL and the MIC (S. aureus ATCC 33592; [2]) was 25 µg/mL. The MIC (S. aureus ATCC 33592; LYM broth, 0.5 mM MgCl2) was 25 µg/mL, the MIC (S. aureus ATCC 33592; LYM broth, 1.5 mM MgCl2) was 25 µg/mL and the MIC (S. aureus ATCC 33592; LYM broth, 2.5 mM MgCl2) was 25 µg/mL. The MIC (S. aureus ATCC 33592; [3]) was 25 µg/mL, the MIC (S. aureus ATCC 33592; [4]) was 50 µg/mL and the MIC (S. aureus ATCC 33592; [5]) was over 50 µg/mL. For the same substance, the MIC (S. aureus ATCC 33592; [6]) was over 50 µg/mL, the MIC (S. aureus ATCC 33592; LYM broth, pH 4.5) was 25 µg/mL and the MIC (S. aureus ATCC 33592; LYM broth, pH 5.5) was 12.5 µg/mL. It also gave an MIC (S. aureus ATCC 33592; LYM broth, pH 6.5) of 12.5 µg/mL and an MIC (S. aureus ATCC 33592; [7]) of over 50 µg/mL.

With Ac-WLAKKKKWRKWLK-NH2 [Peptide W5K08] the “GM G+ (geometric mean of the MIC values)” value (Gram-positive bacteria) was 75.8 µg/mL, the “Therapeutic Index (TI) G+” value (Gram-positive bacteria) was 1.4 and the MIC [1, 2] was 3.13 µg/mL. The MIC ([1]; LYM broth, 0.5 mM MgCl2) was 3.13 µg/mL, the MIC ([1]; LYM broth, 1.5 mM MgCl2) was 3.13 µg/mL and the MIC ([1]; LYM broth, 2.5 mM MgCl2) was 6.25 µg/mL. The MIC [1, 3] was 6.25 µg/mL, the MIC [1, 4] was 12.5 µg/mL and the MIC [1, 5] was 50 µg/mL. For the same substance, the MIC [1, 6] was over 50 µg/mL, the MIC ([1]; LYM broth, pH 4.5) was 6.25 µg/mL and the MIC ([1]; LYM broth, pH 5.5) was 3.13 µg/mL. For the same substance, the MIC ([1]; LYM broth, pH 6.5) was 3.13 µg/mL, the MIC [1, 7] was 25 µg/mL and the MIC (S. aureus ATCC 25923; [2]) was 1.56 µg/mL. The MIC (S. aureus ATCC 25923; LYM broth, 0.5 mM MgCl2) was 3.13 µg/mL, the MIC (S. aureus ATCC 25923; LYM broth, 1.5 mM MgCl2) was 6.25 µg/mL and the MIC (S. aureus ATCC 25923; LYM broth, 2.5 mM MgCl2) was 6.25 µg/mL. For the same substance, the MIC (S. aureus ATCC 25923; [3]) was 3.13 µg/mL, the MIC (S. aureus ATCC 25923; [4]) was 12.5 µg/mL and the MIC (S. aureus ATCC 25923; [5]) was 50 µg/mL. For the same substance, the MIC (S. aureus ATCC 25923; [6]) was over 50 µg/mL, the MIC (S. aureus ATCC 25923; LYM broth, pH 4.5) was 3.13 µg/mL and the MIC (S. aureus ATCC 25923; LYM broth, pH 5.5) was 3.13 µg/mL. It also gave an MIC (S. aureus ATCC 25923; LYM broth, pH 6.5) of 1.56 µg/mL, an MIC (S. aureus ATCC 25923; [7]) of 25 µg/mL and an MIC (S. aureus ATCC 6538; [2]) of 12.5 µg/mL. The MIC (S. aureus ATCC 6538; LYM broth, 0.5 mM MgCl2) was 3.13 µg/mL, the MIC (S. aureus ATCC 6538; LYM broth, 1.5 mM MgCl2) was 6.25 µg/mL and the MIC (S. aureus ATCC 6538; LYM broth, 2.5 mM MgCl2) was 6.25 µg/mL. For the same substance, the MIC (S. aureus ATCC 6538; [3]) was 25 µg/mL, the MIC (S. aureus ATCC 6538; [4]) was 50 µg/mL and the MIC (S. aureus ATCC 6538; [5]) was 50 µg/mL. The MIC (S. aureus ATCC 6538; [6]) was over 50 µg/mL, the MIC (S. aureus ATCC 6538; LYM broth, pH 4.5) was 12.5 µg/mL and the MIC (S. aureus ATCC 6538; LYM broth, pH 5.5) was 6.25 µg/mL. It also gave an MIC (S. aureus ATCC 6538; LYM broth, pH 6.5) of 6.25 µg/mL, an MIC (S. aureus ATCC 6538; [7]) of over 50 µg/mL and an MIC (S. aureus ATCC 33592; [2]) of 25 µg/mL. It also gave an MIC (S. aureus ATCC 33592; LYM broth, 0.5 mM MgCl2) of 25 µg/mL, an MIC (S. aureus ATCC 33592; LYM broth, 1.5 mM MgCl2) of 25 µg/mL and an MIC (S. aureus ATCC 33592; LYM broth, 2.5 mM MgCl2) of 50 µg/mL. For the same substance, the MIC (S. aureus ATCC 33592; [3]) was 50 µg/mL, the MIC (S. aureus ATCC 33592; [4]) was 50 µg/mL and the MIC (S. aureus ATCC 33592; [5]) was over 50 µg/mL. It also gave an MIC (S. aureus ATCC 33592; [6]) of over 50 µg/mL, an MIC (S. aureus ATCC 33592; LYM broth, pH 4.5) of 25 µg/mL and an MIC (S. aureus ATCC 33592; LYM broth, pH 5.5) of 25 µg/mL. The MIC (S. aureus ATCC 33592; LYM broth, pH 6.5) was 12.5 µg/mL and the MIC (S. aureus ATCC 33592; [7]) was over 50 µg/mL.
